Among the data in BindingDB's records for doi:10.1021/jm0309194 (University of Innsbruck, 2003) are Ki and IC50 values, retold here.

The nature of assay [1]: In vitro binding affinity was determined against butyrylcholinesterase from torpedo californica.
The nature of assay [2]: In vitro anticholinesterase activity against butyrylcholinesterase from torpedo californica.

One may read the Ki as a dissociation constant, usually derived from enzyme kinetics or from competition with a known ligand. A lower Ki goes with a stronger hold on the target. The term IC50 denotes the midpoint of a concentration-inhibition curve. Higher therefore signals weaker potency in that assay. Regarding `C/C(=C\C(=O)N(C)[C@H]1CC[C@@]2(C)[C@@H](CC[C@@H]3[C@@H]2CC[C@]2(C)C([C@H](C)N(C)C)=CC[C@@H]32)C1)C(C)C` [1N-[14-(1-dimethylaminoethyl)-2,15-dimethyl-(1S,7S,10R,11S)-tetracyclo[8.7.0.02,7.011,15]heptadec-13-en-5-yl]-1N,3,4-trimethyl-(E)-2-pentenamide], in assay [1], the affinity, expressed as Ki, was 9.1 µM. The compound further returned an IC50 in assay [2] of 3.65 µM.

In the case of `C/C=C(\C)C(=O)NC1C=C2CC[C@@H]3[C@H](CC[C@]4(C)C([C@H](C)N(C)C)=CC[C@@H]34)[C@@]2(C)C[C@H]1O` (stereo partly drawn) [1N-[14-[1-dimethylamino-(1S)-ethyl]-4-hydroxy-2,15-dimethyl-(1S,2R,4R,5R,10S,11S,15S)-tetracyclo[8.7.0.02,7.011,15]heptadeca-6,13-dien-5-yl]-2-methyl-(E)-2-butenamide], the concentration for half-maximal inhibition (IC50) in assay [2] came out at 23.8 µM.

Turning to `C/C(=C\C(=O)N[C@H]1CC[C@@]2(C)[C@@H](CC[C@@H]3[C@@H]2CC[C@]2(C)[C@@H]([C@H](C)N(C)C)CC[C@@H]32)C1)C(C)C` [3,4-Dimethyl-pent-2-enoic acid [(3S,5S,8R,9S,10S,13S,14S,17S)-17-(1-dimethylamino-ethyl)-10-methyl-13-(S)-methyl-hexadecahydro-cyclopenta[a]phenanthren-3-yl]-amide], in assay [1], the inhibition constant Ki worked out at 3.25 µM. For the same compound, the IC50 in assay [2] is 4.63 µM.

`C/C=C(\C)C(=O)N[C@H]1CC[C@@]2(C)C(=CC[C@H]3C4=CC[C@H]([C@H](C)N(C)C)[C@@]4(C)CC[C@@H]32)C1=O` [(E)-2-Methyl-but-2-enoic acid [(3S,8R,9S,10R,13R,17S)-17-((S)-1-dimethylamino-ethyl)-10,13-dimethyl-4-oxo-2,3,4,7,8,9,10,11,12,13,16,17-dodecahydro-1H-cyclopenta[a]phenanthren-3-yl]-amide] yielded an inhibition constant Ki in assay [1] of 1.6 µM. In addition, in assay [2], 4.29 µM corresponded to half-maximal inhibition (IC50).

Consider `C/C=C(\C)C(=O)N[C@H]1CC[C@@]2(C)C(=CC[C@H]3[C@@H]4CC[C@H]([C@H](C)N(C)C)[C@@]4(C)CC[C@@H]32)C1=O` [(E)-2-Methyl-but-2-enoic acid [(3S,8S,9S,10R,13S,14S,17S)-17-((S)-1-dimethylamino-ethyl)-10,13-dimethyl-4-oxo-2,3,4,7,8,9,10,11,12,13,14,15,16,17-tetradecahydro-1H-cyclopenta[a]phenanthren-3-yl]-amide], for which the affinity in assay [1] corresponds to a Ki of 3.08 µM. Also, the 50% inhibitory concentration (IC50) in assay [2] amounted to 2.1 µM.

Consider `C/C(=C\C(=O)N(C)[C@H]1CC[C@@]2(C)[C@@H](CC[C@@H]3[C@@H]2CC[C@]2(C)[C@@H]([C@H](C)N(C)C)CC[C@@H]32)C1)C(C)C` [(E)-3,4-Dimethyl-pent-2-enoic acid [(3S,5S,8R,9S,10S,13S,14S,17S)-17-((S)-1-dimethylamino-ethyl)-10,13-dimethyl-hexadecahydro-cyclopenta[a]phenanthren-3-yl]-methyl-amide], for which the affinity in assay [1], expressed as Ki, was 3.4 µM. This compound displayed an IC50 in assay [2] of 4.07 µM.

The compound `C[C@@H]([C@H]1CC[C@H]2[C@@H]3CC[C@H]4C[C@@H](N(C)C(=O)/C=C/c5ccccc5)CC[C@]4(C)[C@H]3CC[C@]12C)N(C)C` [(E)-N-[(3S,5S,8R,9S,10S,13S,14S,17S)-17-((S)-1-Dimethylamino-ethyl)-10,13-dimethyl-hexadecahydro-cyclopenta[a]phenanthren-3-yl]-N-methyl-3-phenyl-acrylamide] gave a Ki in assay [1] of 6.6 µM. In assay [2], this compound registered a half-maximal inhibitory concentration (IC50) of 4.84 µM.

Compound `C/C=C(\C)C(=O)N[C@@H]1[C@H](OC(C)=O)[C@@H]2CC[C@@H]3[C@H](CC[C@]4(C)[C@@H]([C@H](C)N(C)C)CC[C@@H]34)[C@@]2(C)C[C@@H]1O` [Acetic acid (1S,4S,6R,7R,10R,11S,12S,15S,16S)-17-((S)-1-dimethylamino-ethyl)-2-(S)-hydroxy-10,13-dimethyl-3-((E)-2-methyl-but-2-enoylamino)-hexadecahydro-cyclopenta[a]phenanthren-4-yl ester] displayed an IC50 in assay [2] of 18.2 µM.

In assay [1], `CC(=O)O[C@H]1[C@@H](NC(=O)C=C(C)C)CC[C@]2(C)[C@H]3CC[C@]4(C)[C@@H]([C@H](C)N(C)C)CC[C@H]4[C@@H]3CC[C@@H]12` [Acetic acid (1S,6R,7R,10R,11S,12S,15S,16S)-17-((S)-1-dimethylamino-ethyl)-10,13-dimethyl-3-(3-methyl-but-2-enoylamino)-hexadecahydro-cyclopenta[a]phenanthren-4-yl ester] registered a Ki of 2.58 µM. In assay [2], the midpoint of inhibition, the IC50, lay at 2.3 µM.

`C/C=C(\C)C(=O)N[C@@H]1[C@H](OC(C)=O)[C@@H]2CC[C@H]3C4=CC[C@H]([C@H](C)N(C)C)[C@@]4(C)CC[C@@H]3[C@@]2(C)C[C@@H]1O` [Acetic acid (2S,3S,4R,5R,8R,9S,10R,13R,17S)-17-((S)-1-dimethylamino-ethyl)-2-hydroxy-10,13-dimethyl-3-((E)-2-methyl-but-2-enoylamino)-2,3,4,5,6,7,8,9,10,11,12,13,16,17-tetradecahydro-1H-cyclopenta[a]phenanthren-4-yl ester] displayed a Ki in assay [1] of 26.3 µM. Besides, it took 38.4 µM to reach half-maximal inhibition in assay [2] (IC50).

For `CC(=O)O[C@H]1[C@@H](NC(=O)c2ccccc2)[C@@H](O)C[C@]2(C)[C@H]3CC[C@]4(C)[C@@H]([C@H](C)N(C)C)CC[C@H]4[C@@H]3CC[C@@H]12` [Acetic acid (2S,3S,4R,5R,8S,9S,10R,13S,14S,17S)-3-benzoylamino-17-(1-dimethylamino-ethyl)-2-hydroxy-10-methyl-13-(S)-methyl-hexadecahydro-cyclopenta[a]phenanthren-4-yl ester], in assay [1], affinity was put at a Ki of 20.3 µM. This compound displayed an IC50 in assay [2] of 18 µM.

For `CN[C@H]1CC[C@@]2(C)[C@@H](CC[C@@H]3[C@@H]2CC[C@]2(C)[C@@H]([C@H](C)N(C)C(C)=O)CC[C@@H]32)C1` [N-Methyl-N-[1-((3S,5S,8R,9S,10S,13S,14S,17S)-10-methyl-13-(S)-methyl-3-methylamino-hexadecahydro-cyclopenta[a]phenanthren-17-yl)-ethyl]-acetamide], in assay [1], the Ki is 8.6 µM. This compound had an IC50 in assay [2] of 16.5 µM.

With `C[C@@H]([C@H]1CC[C@H]2[C@@H]3CC[C@H]4C[C@@H](NC(=O)c5ccccc5)[C@@H](O)C[C@]4(C)[C@H]3CC[C@]12C)N(C)C` [N-[(2S,3R,5S,8R,9S,10S,13S,14S,17S)-17-(1-Dimethylamino-ethyl)-2-hydroxy-10-methyl-13-(S)-methyl-hexadecahydro-cyclopenta[a]phenanthren-3-yl]-benzamide], in assay [1], affinity was put at a Ki of 16.2 µM. This compound also came in with an IC50 in assay [2] of 28.9 µM.

The compound `CC(=O)N[C@H]1CC[C@@]2(C)[C@@H](CC[C@@H]3[C@@H]2CC[C@]2(C)[C@@H]([C@H](C)N(C)C)CC[C@@H]32)C1` [N-[(3S,5S,8R,9S,10S,13S,14S,17S)-17-((S)-1-Dimethylamino-ethyl)-10,13-dimethyl-hexadecahydro-cyclopenta[a]phenanthren-3-yl]-acetamide] had a Ki in assay [1] of 7.5 µM. In assay [2], this compound showed an IC50 of 10.3 µM.

As for `C[C@@H]([C@H]1CC[C@H]2[C@@H]3CC[C@H]4C(=O)C(NC(=O)c5ccccc5)=CC[C@]4(C)[C@H]3CC[C@]12C)N(C)C` [N-[(5R,8S,9S,10R,13S,14S,17S)-17-((S)-1-Dimethylamino-ethyl)-10,13-dimethyl-4-oxo-4,5,6,7,8,9,10,11,12,13,14,15,16,17-tetradecahydro-1H-cyclopenta[a]phenanthren-3-yl]-benzamide], the affinity in assay [1] corresponds to a Ki of 2.15 µM. The compound further displayed a 50% inhibitory concentration (IC50) in assay [2] of 2.49 µM.
